Laboratory results taken from US12060347B2 (BRISTOL-MYERS SQUIBB COMPANY, priority 2016, dated 2024).

Target: T1, human PAR4 (Homo sapiens, UniProt Q96RI0)
T1 construct: expressed in transfected cells; host or cells: HEK293 PAR4 Clone 1.2A (BMS Arctic ID 383940)
T1 sequence (Q96RI0 18-385): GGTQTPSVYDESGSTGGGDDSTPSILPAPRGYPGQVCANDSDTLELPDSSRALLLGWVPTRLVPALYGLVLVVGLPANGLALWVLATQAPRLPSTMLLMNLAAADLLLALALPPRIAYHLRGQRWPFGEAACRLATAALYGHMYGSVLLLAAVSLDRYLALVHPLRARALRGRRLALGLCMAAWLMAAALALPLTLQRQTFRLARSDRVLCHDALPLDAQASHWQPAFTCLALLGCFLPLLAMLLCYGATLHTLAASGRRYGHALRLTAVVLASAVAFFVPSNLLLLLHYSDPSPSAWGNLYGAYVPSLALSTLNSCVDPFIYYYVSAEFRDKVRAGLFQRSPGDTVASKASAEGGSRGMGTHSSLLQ
Assay: PAR4 FLIPR assay: antagonism of agonist-peptide-induced calcium mobilization in PAR4-expressing HEK293 cells
Type: cell-based
Details: H-Ala-Phe(4-F)-[…]NH2-induced intracellular calcium mobilization, 11-point curves

Compound | IC50 [nM]
COCc1cnc2c(-c3nc4c(Cl)cc(OCCNS(=O)(=O)c5cccc(F)c5)cc4s3)cc(C)cc2n1 [Example 102, N-(2-(4-chloro-2-(2-(methoxymethyl)-7-methylquinoxalin-5-yl)benzo[d]thiazol-6-yloxy)ethyl)-3-fluorobenzenesulfonamide] | 0.9
COCc1cnc2c(-c3nc4c(C#N)cc(OC)cc4s3)cc(C)cc2n1 [Example 103, 6-methoxy-2-(2-(methoxymethyl)-7-methylquinoxalin-5-yl)benzo[d]thiazole-4-carbonitrile] | 2.5
COCc1cnc2c(-c3nc4c(C5CC5)cc(OCCNS(=O)(=O)c5ccccc5)cc4s3)cc(C)cc2n1 [Example 104, N-(2-(4-cyclopropyl-2-(2-(methoxymethyl)-7-methylquinoxalin-5-yl)benzo[d]thiazol-6-yloxy)ethyl)benzenesulfonamide] | 1.7
COCc1cnc2c(-c3nc4c(C5CC5)cc(OCCNS(=O)(=O)c5ccc(F)cc5)cc4s3)cc(C)cc2n1 [Example 105, N-(2-(4-cyclopropyl-2-(2-(methoxymethyl)-7-methylquinoxalin-5-yl)benzo[d]thiazol-6-yloxy)ethyl)-4-fluorobenzenesulfonamide] | 8.1
COCc1cnc2c(-c3nc4ccc(OCCNS(=O)(=O)c5ccccc5)cc4s3)cc(C)cc2n1 [Example 106, N-(2-(2-(2-(methoxymethyl)-7-methylquinoxalin-5-yl)benzo[d]thiazol-6-yloxy)ethyl)benzenesulfonamide] | 1.6
COCc1cnc2c(-c3nc4ccc(OCCNS(=O)(=O)c5ccc(F)cc5)cc4s3)cc(C)cc2n1 [Example 107, 4-fluoro N-(2-(2-(2-(methoxymethyl)-7-methylquinoxalin-5-yl)benzo[d]thiazol-6-yloxy)ethyl)benzenesulfonamide] | 2.8
Cc1cc(-c2nc3c(C)cc(OCCNS(=O)(=O)c4ccc(F)cc4)cc3s2)c2ncc(C(C)F)nc2c1 (stereo not drawn) [Example 108, 4-fluoro N-(2-(2-(2-(1 fluoroethyl)-7-methylquinoxalin-5-yl)-4-methylbenzo[d]thiazol-6-yloxy)ethyl)benzenesulfonamide] | 1100
COCc1cnc2c(-c3nc4c(C#N)cc(OCCNS(=O)(=O)c5ccc(F)cc5)cc4s3)cc(C)cc2n1 [Example 109, N-(2-(4-cyano-2-(2-(methoxymethyl)-7-methylquinoxalin-5-yl)benzo[d]thiazol-6-yloxy)ethyl)-4-fluorobenzenesulfonamide] | 8.3
COc1cnc2c(-c3nc4c(C)cc(OCCOC(=O)Nc5ccccc5)cc4s3)cc(C)cc2n1 [Example 110, 2-(2-(2-methoxy-7-methylquinoxalin-5-yl)-4-methylbenzo[d]thiazol-6-yloxy)ethyl phenylcarbamate] | 12
COc1cnc2c(-c3nc4c(C)cc(OCCOC(=O)Nc5cccnc5)cc4s3)cc(C)cc2n1 [Example 111, 2-(2-(2-methoxy-7-methylquinoxalin-5-yl)-4-methylbenzo[d]thiazol-6-yloxy)ethyl pyridin-3-ylcarbamate] | 1.1
COc1ccc(NC(=O)OCCOc2cc(C)c3nc(-c4cc(C)cc5nc(OC)cnc45)sc3c2)cn1 [Example 112, 2-(2-(2-methoxy-7-methylquinoxalin-5-yl)-4-methylbenzo[d]thiazol-6-yloxy)ethyl 6-methoxypyridin-3-ylcarbamate] | 2
COc1cnc2c(-c3nc4c(C)cc(OCCOC(=O)Nc5ccncc5)cc4s3)cc(C)cc2n1 [Example 113, 2-(2-(2-methoxy-7-methylquinoxalin-5-yl)-4-methylbenzo[d]thiazol-6-yloxy)ethyl pyridin-4-ylcarbamate] | 3
Cc1cc(-c2nc3c(C)cc(OCCNS(=O)(=O)c4ccc(F)cc4)cc3s2)c2ncc(COC(F)F)nc2c1 [Example 114, N-(2-(2-(2-((difluoromethoxy)methyl)-7-methylquinoxalin-5-yl)-4-methylbenzo[d]thiazol-6-yloxy)ethyl)-4-fluorobenzenesulfonamide] | 1600
COc1ccc(NC(=O)OCCOc2ccc3nc(-c4cc(C)cc5nc(OC)cnc45)sc3c2)cn1 [Example 115, 2-(2-(2-methoxy-7-methylquinoxalin-5-yl)benzo[d]thiazol-6-yloxy)ethyl 6-methoxypyridin-3-ylcarbamate] | 1.3
COc1cnc2c(-c3nc4c(C)cc(OCCOC(=O)Nc5cncc(C#N)c5)cc4s3)cc(C)cc2n1 [Example 116, 2-(2-(2-methoxy-7-methylquinoxalin-5-yl)-4-methylbenzo[d]thiazol-6-yloxy)ethyl 5-cyanopyridin-3-ylcarbamate] | 1.4
COc1cnc2c(-c3nc4c(C)cc(OCCOC(=O)Nc5ccc(C#N)nc5)cc4s3)cc(C)cc2n1 [Example 117, 2-((2-(2-methoxy-7-methylquinoxalin-5-yl)-4-methylbenzo[d]thiazol-6-yl)oxy)ethyl (6-cyanopyridin-3-yl)carbamate] | 0.5
COc1cnc2c(-c3nc4ccc(OCCOC(=O)Nc5cccc(C#N)c5)cc4s3)cc(C)cc2n1 [Example 118, 2-((2-(2-methoxy-7-methylquinoxalin-5-yl)benzo[d]thiazol-6-yl)oxy)ethyl (3-cyanophenyl)carbamate] | 2.2
COc1cnc2c(-c3nc4c(C)cc(OCCOC(=O)Nc5cnc(Cl)nc5)cc4s3)cc(C)cc2n1 [Example 119, 2-((2-(2-methoxy-7-methylquinoxalin-5-yl)-4-methylbenzo[d]thiazol-6-yl)oxy)ethyl (2-chloropyrimidin-5-yl)carbamate] | 16

Compound | IC50 [nM]
COc1cnc2c(-c3cc4cc(OC)c(F)cc4o3)cc(C)cc2n1 [Example 120, 5-(6-fluoro-5-methoxybenzofuran-2-yl)-2-methoxy-7-methylquinoxaline] | 28
COCc1cnc2c(-c3cc4cc(OC)c(F)c(Cl)c4o3)cc(C)cc2n1 [Example 121, 5-(7-chloro-6-fluoro-5-methoxybenzofuran-2-yl)-2-(methoxymethyl)-7-methylquinoxaline] | 0.7
COc1cnc2c(-c3cc4cc(OC)c(F)c(Cl)c4o3)cc(C)cc2n1 [Example 122, 5-(7-chloro-6-fluoro-5-methoxybenzofuran-2-yl)-2-methoxy-7-methylquinoxaline] | 3.9
COc1cnc2c(-c3cc4cc(OCCOC(=O)Nc5ccnc(C)c5)c(F)cc4o3)cc(C)cc2n1 [Example 123, 2-((6-fluoro-2-(2-methoxy-7-methylquinoxalin-5-yl)benzofuran-5-yl)oxy)ethyl (2-methylpyridin-4-yl)carbamate] | 1.5
COc1cnc2c(-c3cc4cc(OC)c(F)c(Cl)c4o3)cc(CO)cc2n1 [Example 124, (8-(7-chloro-6-fluoro-5-methoxybenzofuran-2-yl)-3-methoxyquinoxalin-6-yl)methanol] | 1.8
COc1cnc2c(-c3cc4cc(OC)c(F)cc4o3)cc(CO)cc2n1 [Example 125, (8-(6-fluoro-5-methoxybenzofuran-2-yl)-3-methoxyquinoxalin-6-yl)methanol] | 2
COc1cnc2c(-c3cc4cc(OCCOC(=O)Nc5ccnc(C)c5)c(F)cc4o3)cc(CO)cc2n1 [Example 126, 2-((6-fluoro-2-(7-(hydroxymethyl)-2-methoxyquinoxalin-5-yl)benzofuran-5-yl)oxy)ethyl (2-methylpyridin-4-yl)carbamate] | 1.2
COc1ccc2nc(-c3cc(CO)cc4nc(OC)cnc34)sc2c1 [Example 127] | 8.3
COc1cnc2c(-c3nc4c(C)cc(OCCOC(=O)Nc5ccc(C)nc5)cc4s3)cc(CO)cc2n1 [Example 128, 2-(2-(7-(hydroxymethyl)-2-methoxyquinoxalin-5-yl)-4-methylbenzo[d]thiazol-6-yloxy)ethyl 6-methylpyridin-3-ylcarbamate] | 2.2
COc1cnc2c(-c3nc4c(C)cc(OCCOC(=O)Nc5ccnc(C)c5)cc4s3)cc(CO)cc2n1 [Example 129, 2-(2-(7-(hydroxymethyl)-2-methoxyquinoxalin-5-yl)-4-methylbenzo[d]thiazol-6-yloxy)ethyl 2-methylpyridin-4-ylcarbamate] | 3.2
COc1ccc2c(-c3cc4ccccc4o3)nc(C)cc2n1 [Example 130, 5-(benzofuran-2-yl)-2-methoxy-7-methyl-1,6-naphthyridine] | 460
C=Cc1cnc2c(-c3cc4ccccc4o3)cc(C)cc2n1 [Example 131, 5-(benzofuran-2-yl)-7-methyl-2-vinylquinoxaline] | 890
CCc1cnc2c(-c3cc4ccccc4o3)cc(C)cc2n1 [Example 132, 5-(benzofuran-2-yl)-2-ethyl-7-methylquinoxaline] | 59
Cc1ccc(-c2cc3ccccc3o2)c2ncc(OC(F)F)nc12 [Example 133, 5-(benzofuran-2-yl)-2-(difluoromethoxy)-8-methylquinoxaline] | 570
COc1cnc2c(-c3cc4ccccc4o3)nc(C)cc2c1 [Example 134, 8-(benzofuran-2-yl)-3-methoxy-6-methyl-1,7-naphthyridine\] | 120
Cc1cc(-c2cc3ccccc3o2)c2ncc(-c3ccoc3)nc2c1 [Example 135, 5-(benzofuran-2-yl)-2-(furan-3-yl)-7-methylquinoxaline] | 2200
Cc1cc(-c2nc3c(s2)CCC3)c2ncc(OC(F)F)nc2c1 [Example 136, 2-(2-(difluoromethoxy)-7-methylquinoxalin-5-yl)-5,6-dihydro-4H-cyclopenta[d]thiazole] | 29
COc1cnc2c(-c3nc4c(s3)CCCCC4)cc(C)cc2n1 [Example 137, 2-(2-methoxy-7-methylquinoxalin-5-yl)-5,6,7,8-tetrahydro-4H-cyclohepta[d]thiazole] | 29
